The record followed here is patent publication US20230059136A1, “THE COMPOUNDS AND COMPOSITIONS FOR TREATING CONDITIONS ASSOCIATED WITH NLRP ACTIVITY” (Novartis AG, priority 2018, published 2023).

SMILES strings stand for the structures.

The test system of one assay is IL-1β production in PMA-differentiated THP-1 cells. As to the kind of experiment: IL-1β production in PMA-differentiated THP-1 cells stimulated with gramicidin (hTHP-1 assay containing 2% fetal bovine serum). Format: cell-based, human. The settings on record: Homo sapiens, THP-1, Table B1; 2% fetal bovine serum; cells printed as numeric bound; read-out: hTHP-1 IC50 (Average IC50 of compounds in hTHP-1 assay). The protocol: Procedure 1: IL-1β Production in PMA-Differentiated THP-1 Cells Stimulated with Gramicidin.
THP-1 cells were purchased from the American Type Culture Collection and sub-cultured according to instructions from the supplier. Cells were cultured in complete RPMI 1640 (containing 10% heat inactivated FBS, penicillin (100 units/ml) and streptomycin (100 μg/ml)), and maintained in log phase prior to experimental setup. Prior to the experiment, compounds were dissolved in dimethyl sulfoxide (DMSO) to generate a 30 mM stock. The compound stock was first pre-diluted in DMSO to 3, 0.34, 0.042 and 0.0083 mM intermediate concentrations and subsequently spotted using Echo550 liquid handler into an empty 384-well assay plate to achieve desired final concentration (e.g. 100, 33, 11, 3.7, 1.2, 0.41, 0.14, 0.046, 0.015, 0.0051, 0.0017 μM). DMSO was backfilled in the plate to achieve a final DMSO assay concentration of 0.37%. The plate was then sealed and stored at room temperature until required.
THP-1 cells were treated with PMA (Phorbol 12-myristate 13-acetate) (20 ng/ml) for 16-18 hours. On the day of the experiment the media was removed and adherent cells were detached with trypsin for 5 minutes. Cells were then harvested, washed with complete RPMI 1640, spun down, and resuspended in RPMI 1640 (containing 2% heat inactivated FBS, penicillin (100 units/ml) and streptomycin (100 μg/ml). The cells were plated in the 384-well assay plate containing the spotted compounds at a density of 50,000 cells/well (final assay volume 50 μl). Cells were incubated with compounds for 1 hour and then stimulated with gramicidin (5 μM) (Enzo) for 2 hours. Plates were then centrifuged at 340 g for 5 min. Cell free supernatant (40 μL) was collected using a 96-channel PlateMaster (Gilson) and the production of IL-1β was evaluated by HTRF (cisbio). The plates were incubated for 18 h at 4° C. and read using the preset HTRF program (donor emission at 620 nm, acceptor emission at 668 nm) of the SpectraMax i3x spectrophotometer (Molecular Devices, software SoftMax 6). A vehicle only control and a dose titration of CRID3 (100-0.0017 μM) were run concurrently with each experiment.
Procedure 2: IL-1β Production in PMA-Differentiated THP-1 Cells Stimulated with Gramicidin.
THP-1 cells were purchased from the American Type Culture Collection and sub-cultured according to instructions from the supplier. Prior to experiments, cells were cultured in complete RPMI 1640 (containing 10% heat inactivated FBS, penicillin (100 units/ml) and streptomycin (100 μg/ml)), and maintained in log phase prior to experimental setup. Prior to the experiment THP-1 were treated with PMA (Phorbol 12-myristate 13-acetate) (20 ng/ml) for 16-18 hours. Compounds were dissolved in dimethyl sulfoxide (DMSO) to generate a 30 mM stock. On the day of the experiment the media was removed and adherent cells were detached with trypsin for 5 minutes. Cells were then harvested, washed with complete RPMI 1640, spun down, resuspended in RPMI 1640 (containing 2% heat inactivated FBS, penicillin (100 units/ml) and streptomycin (100 μg/ml). The cells were plated in a 384-well plate at a density of 50,000 cells/well (final assay volume 50 μl). Compounds were first dissolved in assay medium to obtain a 5× top concentration of 500 μM. 10 step dilutions (1:3) were then undertaken in assay medium containing 1.67% DMSO. 5× compound solutions were added to the culture medium to achieve desired final concentration (e.g. 100, 33, 11, 3.7, 1.2, 0.41, 0.14, 0.046, 0.015, 0.0051, 0.0017 μM). Final DMSO concentration was at 0.37%. Cells were incubated with compounds for 1 hour and then stimulated with gramicidin (5 μM) (Enzo) for 2 hours. Plates were then centrifuged at 340 g for 5 min. Cell free supernatant (40 μL) was collected using a 96-channel PlateMaster (Gilson) and the production of IL-1β was evaluated by HTRF (cisbio). A vehicle only control and a dose titration of CRID3 (100-0.0017 μM) were run concurrently with each experiment. […]
The IC50 is the concentration that gives 50% inhibition. In the case of `CC(C)c1ncnc(C(C)C)c1CC(=O)N=S(N)(=O)c1cnc(C(C)(C)O)s1` (centres unmarked) [Compound 260], the IC50 was more than 30000 nM.

Still in this assay, the particulars now being: Homo sapiens, THP-1, Table B1; 2% fetal bovine serum; class symbols; read-out: hTHP-1 IC50 (Average IC50 of compounds in hTHP-1 assay).
For `CC(C)c1cc(CCC2CCCCC2)cc(C(C)C)c1CC(=O)N=S(N)(=O)c1cc(C(C)(C)O)n(-c2ccccc2)n1` (single isomer, unassigned) [Example 281, (R) or (S)-N-(amino(5-(2-hydroxypropan-2-yl)-1-phenyl-1H-pyrazol-3-yl)(oxo)-λ^6-sulfaneylidene)-2-(4-(2-cyclohexylethyl)-2,6-diisopropylphenyl) acetamide], the IC50 is 5000 to 30000 nM.
As to `CC(C)c1cc(-c2ccc3c(c2)COCC3)cc(C(C)C)c1CC(=O)N=S(N)(=O)c1cnc(C(C)(C)O)s1` (centres unmarked) [Example 97, N-(amino(2-(2-hydroxypropan-2-yl)thiazol-5-yl)(oxo)-λ^6-sulfaneylidene)-2-(4-(isochroman-7-yl)-2,6-diisopropylphenyl)acetamide], the IC50 lay within 200 to 1000 nM.
Same read-out and setting: under `CC(C)c1cnc(F)c(C(C)C)c1CC(=O)N=S(N)(=O)c1cnc(C(C)(C)O)s1` (single isomer, unassigned) [Example 315, (R) or (S)-N-(amino(2-(2-hydroxypropan-2-yl)thiazol-5-yl)(oxo)-λ^6-sulfaneylidene)-2-(2-fluoro-3,5-diisopropylpyridin-4-yl)acetamide] stands 5000 to 30000 nM; under `CC(C)c1cc(-c2ccc3c(c2)CCOC3)cc(C(C)C)c1CC(=O)N=S(N)(=O)c1cnc(C(C)(O)CO)s1` (centres unmarked) [Example 253, N-(amino(2-(1,2-dihydroxypropan-2-yl)thiazol-5-yl) (oxo)-λ^6-sulfaneylidene)-2-(4-(isochroman-6-yl)-2,6-diisopropylphenyl)acetamide], 1000 to 5000 nM; under `CC(C)c1cc(COC2CCCC2)cc(C(C)C)c1CC(=O)N=S(N)(=O)c1cc(C(C)(C)O)n(-c2ccc(F)cc2)n1` (single isomer, unassigned) [Example 283, (R) or (S)-N-(amino(1-(4-fluorophenyl)-5-(2-hydroxypropan-2-yl)-1H-pyrazol-3-yl)(oxo)-λ^6-sulfaneylidene)-2-(4-((cyclopentyloxy)methyl)-2,6-diisopropylphenyl) acetamide], 200 to 1000 nM.
As to `CC(C)c1cc(C#CC2CCCCC2)cc(C(C)C)c1CC(=O)N=S(N)(=O)c1cc(C(C)(C)O)n(-c2ccccc2)n1` (centres unmarked) [Example 226, N-(amino(5-(2-hydroxypropan-2-yl)-1-phenyl-1H-pyrazol-3-yl)(oxo)-λ^6-sulfaneylidene)-2-(4-(cyclohexylethynyl)-2,6-diisopropylphenyl)acetamide], the IC50 lay within 1000 to 5000 nM.
Same read-out and setting: under `CC(C)c1cc(-c2ccc3ccccc3c2)cc(C(C)C)c1CC(=O)N=[S@@](=O)(NC#N)c1cnc(C(C)(C)O)s1` [Example 346, (R)-N-(cyanamido(2-(2-hydroxypropan-2-yl)thiazol-5-yl)(oxo)-λ^6-sulfaneylidene)-2-(2,6-diisopropyl-4-(naphthalen-2-yl)phenyl)acetamide] stands 200 to 1000 nM.

Still in this assay, the particulars now being: Homo sapiens, THP-1, Table B2; 2% fetal bovine serum; cells printed as numeric bound; read-out: hTHP-1 IC50 (Average IC50 of compounds in hTHP-1 assay).
As to `CC(C)c1cc2ccccc2c(C(C)C)c1CC(=O)N=[S@@](N)(=O)c1cnc(C(C)(C)O)s1` [Example 389, (R)-N-(amino(2-(2-hydroxypropan-2-yl)thiazol-5-yl) (oxo)-λ^6-sulfaneylidene)-2-(1,3-diisopropylnaphthalen-2-yl)acetamide], the IC50 is more than 30000 nM.

Still in this assay, the particulars now being: Homo sapiens, THP-1, Table B2; 2% fetal bovine serum; class symbols; read-out: hTHP-1 IC50 (Average IC50 of compounds in hTHP-1 assay).
In the case of `CC(C)c1cc(C#N)cc(C(C)C)c1CC(=O)N=S(=O)(NC#N)c1sc(C(C)(C)O)nc1CO` (single isomer, unassigned) [Example 358], the IC50 is 40 to 200 nM.
For the compound `CNCc1ccc(S(N)(=O)=NC(=O)Cc2c(-c3ccccc3)ccc3c2CCC3)cc1` (centres unmarked) [Example 379, N-(amino(4-((methylamino)methyl)phenyl)(oxo)-λ^6-sulfaneylidene)-2-(5-phenyl-2,3-dihydro-1H-inden-4-yl)acetamide], the IC50 lay within 5000 to 30000 nM.
Still for that read-out and setting: under `CNCc1ccc(S(N)(=O)=NC(=O)Cc2c(-c3ccccc3)ccc3c2CCC3)cc1` (racemic) [Example 381, (R) and (S)—N-(amino(4-((methylamino)methyl)phenyl)(oxo)-λ^6-sulfaneylidene)-2-(5-phenyl-2,3-dihydro-1H-inden-4-yl)acetamide] stands 5000 to 30000 nM; under `CC(C)c1cc(C#N)cc(C(C)C)c1CC(=O)N=[S@@](=O)(NC#N)c1sc(C(C)(C)O)nc1CCO` [Example 374, (R)-N-(cyanamido(4-(2-hydroxyethyl)-2-(2-hydroxypropan-2-yl)thiazol-5-yl)(oxo)-λ^6-sulfaneylidene)-2-(4-cyano-2,6-diisopropylphenyl)acetamide], 40 to 200 nM.

The same assay, now with this note: Table B1; 2% fetal bovine serum; class symbols; read-out: hTHP-1 IC50 (Average IC50 of compounds in hTHP-1 assay).
With `CC(C)c1cc(F)cc(C(C)C)c1CC(=O)N=S(N)(=O)c1sc(C(C)(C)O)cc1F` (centres unmarked) [Example 17, 2-(4-fluoro-2,6-diisopropylphenyl)-N-(3-fluoro-5-(2-hydroxypropan-2-yl)thiophen-2-ylsulfonimidoyl)acetamide], the IC50 is 8 to 40 nM.
Same read-out and setting: under `COCc1cc(C(C)C)c(CC(=O)N=S(N)(=O)c2ncc(C(C)(C)O)s2)c(C(C)C)c1` (single isomer, unassigned) [Example 185, (R) or (S)-N-(amino(5-(2-hydroxypropan-2-yl)thiazol-2-yl)(oxo)-λ^6-sulfaneylidene)-2-(2,6-diisopropyl-4-(methoxymethyl)phenyl)acetamide] stands 40 to 200 nM.
Turning to `CC(C)c1cc(OC(F)F)cc(C(C)C)c1CC(=O)N=S(N)(=O)c1sc(C(C)(C)O)cc1F` (centres unmarked) [Example 21, 2-(4-(difluoromethoxy)-2,6-diisopropylphenyl)-N-(3-fluoro-5-(2-hydroxypropan-2-yl)thiophen-2-ylsulfonimidoyl)acctamide], the concentration for half-maximal inhibition (IC50) fell in the range of 40 to 200 nM.
The same measure, in the same setting: under `CC(C)c1ncc(F)c(C(C)C)c1CC(=O)N=S(N)(=O)c1sc(C(C)(C)O)cc1F` (single isomer, unassigned) [Example 210, (S) or (R)-N-(amino (3-fluoro-5-(2-hydroxypropan-2-yl)thiophen-2-yl)(oxo)-λ^6-sulfaneylidene)-2-(5-fluoro-2,4-diisopropylpyridin-3-yl)acetamide] stands 5000 to 30000 nM; under `COCc1cc(C(C)C)c(CC(=O)N=S(N)(=O)c2sc(C(C)(C)O)nc2CO)c(C(C)C)c1` (single isomer, unassigned) [Example 69, (R)- or (S)-2-(2,6-diisopropyl-4-(methoxymethyl)phenyl)-N-(4-(hydroxymethyl)-2-(2-hydroxypropan-2-yl)thiazol-5-ylsulfonimidoyl)acetamide], 5000 to 30000 nM.
Same read-out and setting: under `CC(C)c1cc(C#N)cc(C(C)C)c1CC(=O)N=S(N)(=O)c1sc(C(C)(C)O)nc1CO` (single isomer, unassigned) [Example 65] stands 5000 to 30000 nM.
Still for that read-out and setting: under `CC(C)c1cc(F)cc(C(C)C)c1CC(=O)N=S(N)(=O)c1sc(C(C)(C)O)cc1F` (single isomer, unassigned) [Example 51, (R)- or (S)-2-(4-fluoro-2,6-diisopropylphenyl)-N-(3-fluoro-5-(2-hydroxypropan-2-yl)thiophen-2-ylsulfonimidoyl)acetamide] stands 200 to 1000 nM.
